Measured values as given in the NIST ThermoML archive (doi:10.1021/je100362p).

Columns and labels:
[1] = refractive index (Na D-line) (dimensionless); xn = mol fraction of the nth substance listed; details: 101 kPa, Liquid, Standard Abbe refractometry
[2] = xn = mol fraction of the nth substance listed; details: 101 kPa, Liquid; for speed of sound: Sing-around technique in a fixed-path interferometer

COc1ccccc1 [anisole] + CCCCCCCCCCO
Details | mass density, 298.15 K [kg/m3] | mass density, 303.15 K [kg/m3] | mass density, 308.15 K [kg/m3] | refractive index, 298.15 K | refractive index, 303.15 K | refractive index, 308.15 K | speed of sound, 298.15 K [m/s] | speed of sound, 303.15 K [m/s] | speed of sound, 308.15 K [m/s]
[1], x1 = 0.0817 | – | – | – | 1.43761 | 1.4356 | 1.43301 | – | – | –
[1], x1 = 0.144 | – | – | – | 1.44029 | 1.43803 | 1.43539 | – | – | –
[1], x1 = 0.2047 | – | – | – | 1.44304 | 1.44069 | 1.43799 | – | – | –
[1], x1 = 0.273 | – | – | – | 1.44629 | 1.44389 | 1.44125 | – | – | –
[1], x1 = 0.3484 | – | – | – | 1.45029 | 1.44799 | 1.44522 | – | – | –
[1], x1 = 0.4099 | – | – | – | 1.45394 | 1.45164 | 1.44877 | – | – | –
[1], x1 = 0.4874 | – | – | – | 1.45908 | 1.45684 | 1.45398 | – | – | –
[1], x1 = 0.544 | – | – | – | 1.46319 | 1.46099 | 1.45815 | – | – | –
[1], x1 = 0.6071 | – | – | – | 1.46829 | 1.46616 | 1.46323 | – | – | –
[1], x1 = 0.6699 | – | – | – | 1.47385 | 1.47181 | 1.46884 | – | – | –
[1], x1 = 0.7359 | – | – | – | 1.48043 | 1.47853 | 1.47539 | – | – | –
[1], x1 = 0.8171 | – | – | – | 1.48959 | 1.48774 | 1.48475 | – | – | –
[1], x1 = 0.91 | – | – | – | 1.50162 | 1.49999 | 1.49685 | – | – | –
[1], x1 = 0.9464 | – | – | – | 1.50672 | 1.50539 | 1.50231 | – | – | –
[1], x1 = 1 | – | – | – | 1.51495 | 1.51395 | 1.51095 | – | – | –
[2], x1 = 0.0817 | 833.984 | 830.48 | 826.944 | – | – | – | 1377.1 | 1359.8 | 1342.7
[2], x1 = 0.144 | 840.044 | 836.478 | 832.875 | – | – | – | 1375.3 | 1357.9 | 1340.7
[2], x1 = 0.2047 | 846.31 | 842.682 | 839.02 | – | – | – | 1373.6 | 1356.1 | 1338.8
[2], x1 = 0.273 | 853.826 | 850.126 | 846.4 | – | – | – | 1371.9 | 1354.2 | 1336.8
[2], x1 = 0.3484 | 862.774 | 858.992 | 855.195 | – | – | – | 1370.2 | 1352.4 | 1334.8
[2], x1 = 0.4099 | 870.64 | 866.789 | 862.929 | – | – | – | 1369.4 | 1351.4 | 1333.6
[2], x1 = 0.4874 | 881.37 | 877.429 | 873.48 | – | – | – | 1368.8 | 1350.8 | 1332.8
[2], x1 = 0.544 | 889.862 | 885.853 | 881.832 | – | – | – | 1369.2 | 1350.9 | 1332.8
[2], x1 = 0.6071 | 900.075 | 895.987 | 891.877 | – | – | – | 1370.4 | 1351.9 | 1333.6
[2], x1 = 0.6699 | 911.097 | 906.926 | 902.722 | – | – | – | 1372.3 | 1353.6 | 1335
[2], x1 = 0.7359 | 923.763 | 919.5 | 915.191 | – | – | – | 1375.5 | 1356.5 | 1337.6
[2], x1 = 0.8171 | 941.067 | 936.682 | 932.241 | – | – | – | 1381.6 | 1362.2 | 1343
[2], x1 = 0.91 | 963.68 | 959.139 | 954.549 | – | – | – | 1392.6 | 1372.8 | 1352.9
[2], x1 = 0.9464 | 973.453 | 968.846 | 964.201 | – | – | – | 1398 | 1377.9 | 1357.9
[2], x1 = 1 | 989.145 | 984.433 | 979.712 | – | – | – | 1406.9 | 1386.8 | 1366.5
